US20210087238A1, “CELL PENETRATING PEPTIDES AND RELATED COMPOSITIONS AND METHODS” (Phylogica Limited, priority 2017, published 2021)
Like-named read-outs stand apart in the source and are kept apart here. Where a SMILES comes first, the peptide text is derived from it. Where no end group is shown, it is not given here. [ ]: non-standard residue; d: D form.

How the values were obtained:
CHO-K1 cells [1] = conditions: up to 50 μM; for cytotoxicity of peptides alone, cell viability: 24 h and 48 h incubation; for cytotoxicity of peptides alone, LDH release (membrane integrity): 2 h and 24 h incubation
Method: Cell viability effect on CHO-K1 cells of Phylomer™ CPPs and variants compared to the canonical CPPs TAT and Penetratin following 24 h (A) and 48 h (B) incubation with peptides. Cell viability was assessed by resazurin reduction potential. Membrane integrity of CHO-K1 cells were assessed by LDH release following 2 h (C) and 24 h (D) incubation with peptides. […] Results are representative of 3 independent experiments. Error bars represent standard deviation from the mean of triplicate samples.
(§1) Cells in were seeded at 2000-6000 cells/well, depending on cell line, in 96-well plates (PAP assays: CHO-K1, 3000 cells/well; peptide cytotoxicity assays: CHO-K1, 5000 cells/well; Bouganin assay: CHO-K1 and CHO-K1 EGFR, 2500 cells/well; ^DPMIα assays: T47D, 5000 cells/well; Omomyc assays: all cell lines, 5000 cells/well). In brief, adherent cells were allowed to attach for 24 h prior to addition of treatments whereas suspension cell lines were treated immediately following seeding. Following 2-48 h incubations with treatments, cell viability was measure by a variety of methods. Membrane integrity was assessed by the release of LDH into the media via the CytoTox-ONE reagent (Promega). Metabolic activity was measured either by resazurin reduction potential using PrestoBlue (LifeTech) or ATP activity using CellTitre-Glo (Promega). All assays followed manufacturer's instructions. IC50 values were calculated using Prism (version 7.0a, GraphPad).
When delivering therapeutics into a cell, it is critical that the delivery molecule itself is not cytotoxic. To assess innate cytotoxicity we tested the effects of FPPs alone on cell viability at 24 h (FIG. 6A) and 48 h (FIG. 6B) after addition of peptides. The effects of FPPs on membrane stability of cells was also assessed in a LDH enzymatic assay, measuring release of LDH from cells into surrounding media at 2 h (FIG. 6C) and 24 h (FIG. 6D) after treatment with peptides.

T47D cells [2] = experiment: Cell viability assay of FPP1.1_SpyT variants conjugated to SpyC_PAP, resazurin reduction; format: cell-based; conditions: 48 h incubation, FIG. 5
Method: Cell viability assay on T47D cells of FPP1.1_SpyT peptide compared to retro-inverso (RI) and dimerised variants conjugated to the SpyCatcher_PAP (SpyC_PAP) mitochondriotoxic cargo. T47D cells were seeded at 6×10^3 cells per well and treated the following day with FPP-Toxic cargo conjugates. Following 48 h incubation cell viability was assessed by resazurin reduction potential.
(§2) With the exception of SpyC PAS proteins, conjugations were set up at a SpyCatcher:SpyTag ratio of 1:1.25, with a 40 μM final concentration for the SpyCatcher moiety. SpyC proteins and SpyTag peptides were incubated for 2 h at 22° C. with gentle mixing, and then left at 4° C. overnight. Conjugation efficiencies were analyzed on 4-16% SDS-PAGE gels stained with Gel Code Blue Reagent (Thermo Fisher Scientific). SpyC_PAS proteins were conjugated with SpyTag peptides at ratio 1:1.1, mixed and incubated at room temperature for 30 mins before being stored overnight at 4° C.
(§3) All assays followed manufacturer's instructions.

T47D cells [3] = conditions: for IC50: 48 h; for delivery of DPMIα, comparison of 10 μM peptide treatments: FIG. 8B, one-way ANOVA; for effect on T47D cell viability of CPP-delivered DPMIα: 48 h incubation, FIG. 8A
Method: Cell viability was assessed by resazurin reduction potential after 48 h incubation with peptides. […] Results are representative of 3 independent experiments.
as §1
^DPMIα is a small peptide (SEQ ID NO:105), which when conjugated to cationic CPPs can internalize into cells, bind to MDM2 (acting as a dominant negative peptide) and lift p53 suppression causing indiscriminate cytotoxicity (Liu, supra).

CHO-K1 cells [4] = experiment: PAP cell viability assay: SpyC_PAP conjugated to CPP_SpyT, resazurin reduction; format: cell-based; conditions: for cell death caused by SpyC-PAP conjugate: compared to TAT or Penetratin-delivered SpyC_PAP
Method: as §2, §3
SpyC-PAP/CPP-SpyT complex IC50s were ranked according to potency to determine impact of changes to primary CPP sequence. Sequence variations positively impacting on potency are retained for further optimization, whereas sequence variations deleterious to potency are excluded, thus establishing sequence activity relationships for the CPP peptide. SpyC_BLA/CPP-SpyT complex median cell fluorescence at 4 μM concentration was ranked according to intensity to determine impact of changes to primary CPP sequence. Sequence variations positively impacting on intensity were retained for further optimization, whereas sequence variations deleterious to intensity were excluded, thus establishing sequence activity relationships for the CPP peptide.
For the first readout of functional activity we chose the proapoptotic peptide PAP (SEQ ID NO:61; Ellerby et al 1999, Nat Med, 5, 1032-1038) as a functional cargo and expressed it recombinantly, fused to SpyCatcher (SEQ ID NO:83) (abbreviated as “SpyC_PAP” or “SpyC-PAP”; SEQ ID NO:62) to enable subsequent conjugation with synthetic CPP-SpyTag fusion proteins. Mammalian cells were incubated with SpyC_PAP-CPP protein conjugates, which induce apoptosis if successfully delivered into cells. […] As a representative member of the largest cluster of sequences from the screen, FPP1 was selected for additional optimization studies.

[5] = PAP assay, variant_SpyT/SpyC_PAP

C[C@@H](O)[C@H](NC(=O)[C@H](CCCCN)NC(=O)[C@@H]1CCCN1C(=O)[C@H](CCCCN)NC(=O)[C@H](CCCCN)NC(=O)[C@@H]1CCCN1C(=O)[C@H](CCCCN)NC(=O)[C@@H]1CCCN1C(=O)[C@@H]1CCCN1C(=O)[C@H](CCC(N)=O)NC(=O)[C@H](CCCCN)NC(=O)[C@H](CCCCN)NC(=O)[C@H](CCCCN)NC(=O)[C@@H](N)CCCCN)C(=O)N[C@@H](CCC(N)=O)C(=O)N[C@@H](CCC(=O)O)C(=O)N[C@@H](CCCCN)C(=O)N[C@@H](CCCCN)C(=O)N[C@@H](CCCCN)C(=O)N[C@@H](CCCCN)C(=O)N[C@@H](CCC(N)=O)C(=O)N1CCC[C@H]1C(=O)N1CCC[C@H]1C(=O)N[C@@H](CCCCN)C(=O)N1CCC[C@H]1C(=O)N[C@@H](CCCCN)C(=O)N[C@@H](CCCNC(=N)N)C(=O)O [FPP1.1] (H-KKKKQPPKPKKPKTQEKKKKQPPKPKR-OH)
cytotoxicity of peptides alone, cell viability (CHO-K1 cells [1]): lack of cytotoxicity
IC50 (T47D cells [2]): 8.7 µM

CC[C@H](C)[C@H](NC(=O)[C@H](CCCCN)NC(=O)[C@@H](NC(=O)[C@H](CCC(N)=O)NC(=O)[C@@H](N)CCCNC(=N)N)[C@@H](C)CC)C(=O)N[C@@H](Cc1c[nH]c2ccccc12)C(=O)N[C@@H](Cc1ccccc1)C(=O)N[C@@H](CCC(N)=O)C(=O)N[C@@H](CC(N)=O)C(=O)N[C@@H](CCCNC(=N)N)C(=O)N[C@@H](CCCNC(=N)N)C(=O)N[C@@H](CCSC)C(=O)N[C@@H](CCCCN)C(=O)N[C@@H](Cc1c[nH]c2ccccc12)C(=O)N[C@@H](CCCCN)C(=O)N[C@@H](CCCCN)C(=O)NCC(=O)N[C@@H](C)C(=O)N[C@@H](CO)C(=O)N[C@@H](C)C(=O)N[C@@H](Cc1c[nH]cn1)C(=O)N[C@H](C(=O)N[C@H](C(=O)N[C@@H](CCSC)C(=O)N[C@H](C(=O)N[C@@H](CC(=O)O)C(=O)N[C@@H](C)C(=O)N[C@@H](Cc1ccc(O)cc1)C(=O)N[C@@H](CCCCN)C(=O)N1CCC[C@H]1C(=O)N[C@H](C(=O)N[C@@H](CCCCN)C(=O)NCC(=O)O)[C@@H](C)O)C(C)C)C(C)C)[C@@H](C)CC [Penetratin CPP-SpyTag fusion]
cytotoxicity of peptides alone, cell viability (CHO-K1 cells [1]): some inconsistent cytotoxicity at the highest concentrations

CC[C@H](C)[C@H](NC(=O)[C@H](Cc1c[nH]cn1)NC(=O)[C@H](C)NC(=O)[C@H](CO)NC(=O)[C@H](C)NC(=O)CNC(=O)[C@H](CCCNC(=N)N)NC(=O)[C@H](CCCNC(=N)N)NC(=O)[C@H](CCCNC(=N)N)NC(=O)[C@H](CCC(N)=O)NC(=O)[C@H](CCCNC(=N)N)NC(=O)[C@H](CCCNC(=N)N)NC(=O)[C@H](CCCCN)NC(=O)[C@H](CCCCN)NC(=O)[C@H](CCCNC(=N)N)NC(=O)CN)C(=O)N[C@H](C(=O)N[C@@H](CCSC)C(=O)N[C@H](C(=O)N[C@@H](CC(=O)O)C(=O)N[C@@H](C)C(=O)N[C@@H](Cc1ccc(O)cc1)C(=O)N[C@@H](CCCCN)C(=O)N1CCC[C@H]1C(=O)N[C@H](C(=O)N[C@@H](CCCCN)C(=O)NCC(=O)O)[C@@H](C)O)C(C)C)C(C)C [TAT-SpyTag fusion]
cytotoxicity of peptides alone, LDH release (membrane integrity) (CHO-K1 cells [1]): no cytotoxic activity
cytotoxicity of peptides alone, cell viability (CHO-K1 cells [1]): no cytotoxic activity

CC(C)C[C@@H](NC(=O)[C@@H](CC(C)C)NC(=O)[C@@H](CCCCN)NC(=O)[C@@H](CCC(=O)O)NC(=O)[C@@H](CC(C)C)NC(=O)[C@@H](CC(N)=O)NC(=O)[C@@H](C)NC(=O)[C@@H](Cc1ccc(O)cc1)NC(=O)[C@@H](Cc1c[nH]c2ccccc12)NC(=O)[C@@H](CC(N)=O)NC(=O)[C@H](NC(=O)[C@H](CO)NC(=O)[C@H](C)NC(=O)CNC(=O)[C@H](CCCNC(=N)N)NC(=O)[C@H](CCCNC(=N)N)NC(=O)[C@H](CCCNC(=N)N)NC(=O)[C@H](CCC(N)=O)NC(=O)[C@H](CCCNC(=N)N)NC(=O)[C@H](CCCNC(=N)N)NC(=O)[C@H](CCCCN)NC(=O)[C@H](CCCCN)NC(=O)[C@H](CCCNC(=N)N)NC(=O)CN)[C@H](C)O)C(=O)N[C@H](CCCNC(=N)N)C(=O)O [TAT_^DPMIα, GRKKRRQRRRGAStnwyanlekllr, reference compound] (H-GRKKRRQRRRGAS[dT][dN][dW][dY][dA][dN][dL][dE][dK][dL][dL][dR]-OH; N-terminus and C-terminus assumed)
IC50 (T47D cells [3]): 36.6 µM

GRKKRRQRRR (Amino acid sequence of TAT CPP) [reference compound]
delivery of DPMIα, comparison of 10 μM peptide treatments (T47D cells [3]): significantly improved compared to DPMIα peptide alone
cytotoxicity of peptides alone, LDH release (membrane integrity) (CHO-K1 cells [1]): non-toxic
cytotoxicity of peptides alone, cell viability (CHO-K1 cells [1]): non-toxic

KKKKQPPKPKKPKTQEKKKKQPPKPKRGASAHIVMVDAYKPTKGASKKKKQPPKPKKPKTQEKKKKQPPKPKR [dimerised FPP1.1]
IC50 (T47D cells [2]): 6.3 µM

KKQPPKPKKPKTQEKKKKQPPKPKR (Amino acid sequence of a Sindbis virus capsid-derived CPP (SAR5)) [FPP1-SAR5]
loss/reduction of activity (potency) relative to parental FPP1 (CHO-K1 cells [4]; [5]): 3 fold

KTQEKKKKQTTKTKKTKTQEKKKKQTTKTKR (Amino acid sequence of a Sindbis virus capsid-derived CPP (1746P_T)) [FPP1-P_T]
effect of truncation or mutation on CPP potency (CHO-K1 cells [4]; PAP assay, relative to parental FPP1): unaffected

PLKPKKPKTQEKKKKQPPKPKKPKTQEKKKKQPPKPK (Amino acid sequence of a Sindbis virus capsid-derived CPP (SAR12)) [FPP1-SAR12]
loss/reduction of activity (potency) relative to parental FPP1 (CHO-K1 cells [4]; [5]): approximately 2.2 fold

PLKPKKPKTQEKKKKQPPKPKKPKTQEKKKKQPPKPKR (Amino acid sequence of a Sindbis virus capsid-derived CPP (SVC27)) [FPP1]
delivery of DPMIα, comparison of 10 μM peptide treatments (T47D cells [3]): significantly improved delivery compared to TAT
effect on T47D cell viability of CPP-delivered DPMIα (T47D cells [3]): dose dependent decrease in T47D cell viability
potency of FPP-delivered PAP conjugate (decrease in CHO-K1 cell viability), order of potency (CHO-K1 cells [4]; CPP_SpyT conjugated to SpyC_PAP, resazurin, FIG. 4A): greatest potency
cell death caused by SpyC-PAP conjugate (CHO-K1 cells [4]; FIG. 4A): significant cell death

PLKPKKPKTQEKKKKQPPKPKKPKTQEKKKKQPPKPKRGAS[dT][dN][dW][dY][dA][dN][dL][dE][dK][dL][dL][dR] [FPP1_^DPMIα]
IC50 (T47D cells [3]): 9.1 µM
effect on T47D cell viability of CPP-delivered DPMIα (T47D cells [3]): significantly more cytotoxic than ^DPMIα alone

PLRPRRPRTQERRRRQPPRPRRPRTQERRRRQPPRPRR (Amino acid sequence of a Sindbis virus capsid-derived CPP (SAR 17)) [FPP1-SAR17]
loss/reduction of activity (potency) relative to parental FPP1 (CHO-K1 cells [4]; [5]): 1.5 fold

SpyC only control: SpyCatcher control without CPP [reference compound]
cell death caused by SpyC-PAP conjugate (CHO-K1 cells [4]; FIG. 4A): no effect

TLKTKKTKTQEKKKKQTTKTKKTKTQEKKKKQTTKTKR (Amino acid sequence of a Sindbis virus capsid-derived CPP (SAR16 P_T)) [FPP1-SAR16]
improvement of activity relative to full length FPP1 (CHO-K1 cells [4]; [5]): 1.7 fold
